This is an account of results in publication PMC8622706, “Synthesis, Molecular Docking, and Antimalarial Activity of Hybrid 4-Aminoquinoline-pyrano[2,3-c]pyrazole Derivatives” (Pharmaceuticals, 2021).

Data set [1] deals with P. falciparum 3D7 (chloroquine-sensitive). Nature of the data set: pLDH antimalarial assay, P. falciparum 3D7 culture. In kind it is cell-based, Plasmodium falciparum. The settings on record: for EC50: Plasmodium falciparum, read-out: P. falciparum 3D7 (CQ-Sensitive) EC50 ± S.D.; for Selectivity Index (SI), (CC50 MTT/EC50 pLDH), CQ-Sensitive: Vero CC50 / 3D7 EC50. The procedure: (§1) The parasites were cultivated by the Trager and Jensen methods to determine the antimalarial activity of the hybrid 4-aminoquinoline-pyrano[2,3-c]pyrazole derivatives against chloroquine-sensitive P. falciparum 3D7 and chloroquine-resistant P. falciparum K1. […] The parasites were maintained in continuous culture in fresh group O (Rhesus positive) human erythrocytes suspended in 2% hematocrit in RPMI 1640 containing […] Albumax I, glucose (3 g/L), hypoxanthine (45 μg/L), and gentamicin (50 μg/L). Plasmodium lactate dehydrogenase (pLDH) assays were performed as described by Makler et al., with slight modification. Parasites were plated in asynchronized phase at 2% hematocrit and 2% parasitemia in 100 μL of the test compounds. The compounds were dissolved in DMSO and further diluted in a culture medium. Chloroquine diphosphate and artemisinin were used as antimalarial reference drugs. Unparasitized erythrocytes without the test compounds were the blanks, while parasitized erythrocytes without test compounds were the control for the assay. Plates were placed in an incubator supplied with 5% CO2 and incubated at 37 °C for 48 h. After incubation, plates were subjected to three 30 min of freeze-thaw cycles to lyse and re-suspend the erythrocytes in the culture. Subsequently, Malstat reagent (100 μL) and a nitro blue tetrazolium salt/phenazine ethosulfate (NBT/PES) solution (25 μL) were added to each well of a new 96-well microtiter plate. The culture (25 μL) was then added to the corresponding well of the reagent plate to initiate the lactate dehydrogenase reaction. Color development of the plate was monitored calorimetrically at 650 nm after an hour of incubation in the dark.

Data set [2] deals with P. falciparum K1 (chloroquine-resistant). Nature of the data set: pLDH antimalarial assay, P. falciparum K1 culture. In kind it is cell-based, Plasmodium falciparum. The following applies: for EC50: Plasmodium falciparum, read-out: P. falciparum K1 (CQ-Resistant) EC50 ± S.D.; for Resistance Index (RI), (EC50 Resistance/EC50 Sensitive): K1/3D7; for Selectivity Index (SI), (CC50 MTT/EC50 pLDH), CQ-Resistant: Vero CC50 / K1 EC50. Here is the method:
as §1

The nature of a further data set: MTT cytotoxicity assay. Type of data set: cell-based. The following applies: African green monkey, Vero cells (ATCC CCL-81), read-out: Vero Cell (Normal Cell) CC50 ± S.D. The procedure:
The cytotoxicity of the hybrid 4-aminoquinoline-pyrano[2,3-c]pyrazole derivatives was measured using the MTT assay described by Mossmann. […] The cell suspension without test compounds served as the positive control for cell growth. […] The medium was then aspirated, and formazan crystals were solubilized by adding 100 μL of DMSO per well for 10 min at 37 °C in a CO2 incubator. […] Three independent tests were conducted to determine the cytotoxicity of each test compound.
Background: Tetrazolium assays rely on reduction of a dye to a coloured formazan, in cell work by metabolically active cells.

For another data set, the system named is P. berghei. On the set-up: method as in PMID 30737133. The settings on record: P. berghei-infected mice, 5th day after infection; cited from earlier work.
For another data set, the system named is P. falciparum. Also on record: method as in doi:10.1039/C6RA01349J. The settings on record: comparator value; read-out: antiplasmodial activity against P. falciparum; cited from earlier work.
Setting [3] is: 3D7, chloroquine-sensitive strain, pLDH assay, 48 h.
The mark [4] stands for this setting: K1, chloroquine-resistant strain, pLDH assay, 48 h.

Like-named read-outs stand apart in the source and are kept apart here. Where only a bound is given, the exact number is not on record here.

As a reminder, the EC50 is the concentration at which the effect is half-maximal. `CCN(CC)CCCC(C)Nc1ccnc2cc(Cl)ccc12` (stereo not drawn) [CQ, chloroquine, reference compound]: the EC50 in data set [1] (3D7, 48 h) came to 2 nM; in data set [2] (K1, 48 h) it was 330 nM.

With `CCOC(=O)c1nn(CCNc2ccnc3cc(Cl)ccc23)c2c1C(c1ccco1)C(C#N)=C(N)O2` (stereo not drawn) [Compound 4c, Ethyl 6-Amino-1-(2-((7-chloroquinolyn-4-yl)amino)ethyl)-5-cyano-4-(furan-2-yl)-1,4-dihydropyrano[2,3-c]pyrazole-3-carboxylate], the EC50 in data set [1] (setting [3]) is 113 ± 2 nM. In data set [1], the “Selectivity Index (SI), (CC50 MTT/EC50 pLDH), CQ-Sensitive” value (from here on “Selectivity Index (SI) … CQ-Sensitive”) is given as 747.9. In addition, in data set [2], the “Resistance Index (RI), (EC50 Resistance/EC50 Sensitive)” value (“Resistance Index (RI)” below) was 14.24 and the “Selectivity Index (SI), (CC50 MTT/EC50 pLDH), CQ-Resistant” value (“Selectivity Index (SI) … CQ-Resistant” for short) came out at 52.49. In data set [2] (setting [4]), the EC50 was 1610 ± 150 nM. The “Antimalarial activity class against K1” value in data set [2] (class by EC50 threshold) is “active”.

The term CC50 denotes the concentration at which the toxic effect on the cells reaches its halfway point. As to `Nc1ccnc2ccccc12` [4-aminoquinoline], in data set [1] (setting [3]), the EC50 came out at 9290 ± 120 nM. In addition, the “Selectivity Index (SI) … CQ-Sensitive” value in data set [1] came to 12.25. In data set [2], the “Resistance Index (RI)” value is 15.11 and the “Selectivity Index (SI) … CQ-Resistant” value amounted to 0.81. Further, the EC50 in data set [2] (setting [4]) was 140000 ± 27600 nM. Moreover, the CC50 at 48 h in “MTT cytotoxicity assay” was determined as 114000 ± 1630 nM.

For `C[C@@H]1CC[C@H]2[C@@H](C)C(=O)O[C@@H]3O[C@@]4(C)CC[C@@H]1[C@]32OO4` [ART, artemisinin, reference compound], the EC50 in data set [1] (setting [3]) came out at 0.1 nM. Besides, the “Selectivity Index (SI) … CQ-Sensitive” value in data set [1] was over 2000. Besides, in data set [2], the “Resistance Index (RI)” value came to 1.7 and the “Selectivity Index (SI) … CQ-Resistant” value was over 2000. Also, the EC50 in data set [2] (setting [4]) turned out to be 0.17 nM.

Turning to `CCOC(=O)c1nn(CCNc2ccnc3cc(Cl)ccc23)c2c1C(c1ccc(O)cc1)C(C#N)=C(N)O2` (stereo not drawn) [Compound 4e, Ethyl 6-Amino-1-(2-((7-chloroquinolyn-4-yl)amino)ethyl)-5-cyano-4-(4-hydroxyphenyl)-1,4-dihydropyrano[2,3-c]pyrazole-3-carboxylate], the EC50 in data set [1] (setting [3]) was 26 ± 9 nM. In addition, the “Selectivity Index (SI) … CQ-Sensitive” value in data set [1] is on record as 355.3. Moreover, in data set [2], the “Resistance Index (RI)” value came out at 273.84 and the “Selectivity Index (SI) … CQ-Resistant” value is 1.3. In addition, in data set [2] (setting [4]), the EC50 worked out at 7120 ± 3720 nM.

On to `Cc1nnc(Nc2cc(C(F)(F)F)nc3c(C(F)(F)F)cccc23)[nH]1` [VIII, N-(5-methyl-4H-1,2,4-triazol-3-yl)-2,8-bis(trifluoromethyl)quinolin-4-amine], for which, in the data set with P. berghei, the reduction of parasitemia is recorded as 66%.

Consider `C=C[C@H]1C[N@@]2CC[C@H]1C[C@H]2[C@H](O)c1ccnc2ccc(OC)cc12` [quinine], for which the IC50 in the data set with P. falciparum was 826 nM.

As for `CCOC(=O)c1nn(CCNc2ccnc3cc(Cl)ccc23)c2c1C(C(C)C)C(C#N)=C(N)O2` (stereo not drawn) [Compound 4d, Ethyl 6-Amino-1-(2-((7-chloroquinolyn-4-yl)amino)ethyl)-5-cyano-4-isopropyl-1,4-dihydropyrano[2,3-c]pyrazole-3-carboxylate], the values for the EC50 in data set [1] (setting [3]) and in data set [2] (setting [4]) were 3390 ± 1890 nM and 300 ± 10 nM, respectively. Further, the “Selectivity Index (SI) … CQ-Sensitive” value in data set [1] was determined as 25.4. The “Antimalarial activity class against 3D7” value in data set [1] (class by EC50 threshold) is “active”. The “Resistance Index (RI)” value in data set [2] was 0.09. Also, the “Selectivity Index (SI) … CQ-Resistant” value in data set [2] is given as 287.

As to `CCOC(=O)c1nn(CCNc2ccnc3cc(Cl)ccc23)c2c1C(c1ccccc1)C(C#N)=C(N)O2` (stereo not drawn) [Compound 4a, Ethyl 6-Amino-1-(2-((7-chloroquinolin-4-yl)amino)ethyl)-5-cyano-4-phenyl-1,4-dihydropyrano[2,3-c]pyrazole-3-carboxylate], the EC50 in data set [1] (setting [3]) turned out to be 190 ± 70 nM. The “Selectivity Index (SI) … CQ-Sensitive” value in data set [1] turned out to be 539.7. Besides, in data set [2], the “Resistance Index (RI)” value is 1.32 and the “Selectivity Index (SI) … CQ-Resistant” value amounted to 410.16. The EC50 in data set [2] (setting [4]) came out at 250 ± 30 nM.

Regarding `CCOC(=O)c1nn(CCNc2ccnc3cc(Cl)ccc23)c2c1C(c1ccc(CC)cc1)C(C#N)=C(N)O2` (stereo not drawn) [Compound 4b, Ethyl 6-Amino-1-(2-((7-chloroquinolin-4-yl)amino)ethyl)-5-cyano-4-(4-ethylphenyl)-1,4-dihydropyrano[2,3-c]pyrazole-3-carboxylate], the EC50 is 13 ± 0.2 nM in data set [1] (setting [3]) and 20 ± 10 nM in data set [2] (setting [4]). In addition, the “Selectivity Index (SI) … CQ-Sensitive” value in data set [1] is on record as 1353.9. Besides, the “Resistance Index (RI)” value in data set [2] came out at 1.53. Besides, the “Selectivity Index (SI) … CQ-Resistant” value in data set [2] was 880.
